Columns and labels:
[1] = target: T1, short form of the GPR120 receptor (Homo sapiens, UniProt Q5NUL3); experiment: Human GPR120 DiscoveRx PathHunter Beta-Arrestin Assay, Procedure β-arrestin B (5000 cells/well); type: cell-based
T1 construct: host or cells: PathHunter CHO-K1 GPR120S β-Arrestin Cell Line
T1 sequence (Q5NUL3 1-361): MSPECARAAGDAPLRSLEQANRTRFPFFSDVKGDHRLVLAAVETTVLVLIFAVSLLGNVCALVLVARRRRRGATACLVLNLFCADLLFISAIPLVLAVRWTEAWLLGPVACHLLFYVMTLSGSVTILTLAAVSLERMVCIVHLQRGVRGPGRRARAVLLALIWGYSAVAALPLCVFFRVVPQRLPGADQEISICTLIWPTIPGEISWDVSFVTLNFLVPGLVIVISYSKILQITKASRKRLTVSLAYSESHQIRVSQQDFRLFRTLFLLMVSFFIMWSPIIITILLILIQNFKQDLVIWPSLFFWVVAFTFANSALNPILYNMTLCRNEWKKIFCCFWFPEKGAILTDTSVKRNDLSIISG
Summary of the method: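 PathHunter CHO-K1 cells expressing short-form GPR120 (NM_181745), seeded at 5000 cells/well, were exposed to compound for 90 min at 37 °C in HBSS/20 mM HEPES/0.1% BSA, pH 7.4. Dilutions ran 25–0.012 µM before addition to wells. β-arrestin recruitment was read by EFC β-gal luminescence, and EC50 was fitted to % activity versus positive control with Hill slope fixed at 1.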

C57bl/6J Mice = experiment: GPR120 C57bl6 Mouse IPGTT; type: in vivo
Protocol: Male, C57bl/6J Mice were ordered in at 8 weeks of age from Jackson Labs. Individual mice weighed anywhere in the range of 25-30 grams on study day. The mice were fasted, with removal of food occurring at 7 am on the morning of the study. Animals were moved into the room at 10:00 am, to give them time to acclimate. Glucose (insulin syringes) was drawn up either the night before or the morning of the study. Glucose was dosed (IP) at 1.5 g/kg at 7.5 ml/kg (20% glucose straight TEKNOVA, 250 ml sterile bottle w/catalogue number G0525). Test compounds were kept spinning and were only drawn into the syringes prior to study commencement. Animals were bled via tail snip to determine basal glucose levels prior to dosing of treatments. An Ascensia BREEZE Blood Glucose Monitoring System by Bayer (using unique 10-test disks) was used for determining glucose levels. The bleeds started at approximately 12:45 pm and dosing started, at 1-minute intervals, immediately after. All groups were dosed 30 minutes prior to glucose administration at a dose volume of 10 ml/kg (the dose volume was calculated separately for each individual animal). Thirty minutes after the first dose animals were bled again for a second baseline, or T=0, and immediately dosed with glucose via an i.p. injection. The exact dose volume for glucose was also calculated separately for each individual animal. Glucose measurements were taken at −30 min prior to compound dose, at t=0 (immediately prior to glucose dose), and at 15, 30, 45, 60, 90 min post glucose dose.
Glucose values were entered into an Excel sheet and graphed in GraphPad Prism. The following were calculated from Prism: Change from −30 to 0 BSLN Glucose, Raw Glucose AUC −30 to 90 min, Delta Glucose AUC −30 to 90 min, Raw Glucose AUC 0 to 90 min, Delta Glucose AUC 0 to 90 min.

| Compound | EC50 [1] [nM] | Dose Responses C57 IPGTT (C57bl/6J Mice; 1 mg/kg) [%] | Dose Responses C57 IPGTT (C57bl/6J Mice; 3 mg/kg) [%] | Dose Responses C57 IPGTT (C57bl/6J Mice; 10 mg/kg) [%] | Dose Responses C57 IPGTT (C57bl/6J Mice; 30 mg/kg) [%] |
| --- | --- | --- | --- | --- | --- |
| CCc1cc2cc(Cl)cc(COc3ccc(CCC(=O)O)c(C)c3C)c2o1 [Compound 11, 3-{4-[(5-Chloro-2-ethyl-1-benzofuran-7-yl)methoxy]-2,3-dimethylphenyl}propanoic acid] | 94 |  |  |  |  |
| Cc1cc2cc(F)cc(COc3ccc(CCC(=O)O)c(C)c3C)c2o1 [Compound 2, 3-{4-[(5-Fluoro-2-methyl-1-benzofuran-7-yl)methoxy]-2,3-dimethylphenyl}propanoic acid] |  | −3 | −20 | −27 | −53 |
| CCc1cc2cc(Cl)c(C)c(COc3ccc(CCC(=O)O)c(C)c3C)c2o1 [Compound 40, 3-{4-[(5-Chloro-2-ethyl-6-methyl-1-benzofuran-7-yl)methoxy]-2,3-dimethylphenyl}propanoic acid] |  | −28 | 13 | −34 |  |

Further compounds by falling EC50 [1], results first:

| EC50 [1] [nM] | Compound | Dose Responses C57 IPGTT (C57bl/6J Mice; 1 mg/kg) [%] | Dose Responses C57 IPGTT (C57bl/6J Mice; 3 mg/kg) [%] | Dose Responses C57 IPGTT (C57bl/6J Mice; 10 mg/kg) [%] | Dose Responses C57 IPGTT (C57bl/6J Mice; 30 mg/kg) [%] |
| --- | --- | --- | --- | --- | --- |
| 1290 | CCc1cc2ccc(OC(F)F)c(COc3ccc(CCC(=O)O)c(C)c3C)c2o1 [Compound 70, 3-(4-{[6-(Difluoromethoxy)-2-ethyl-1-benzofuran-7-yl]methoxy}-2,3-dimethylphenyl)propanoic acid] |  |  |  |  |
| 150 | CCc1cc2cc(Cl)cc(COc3ccc(CCC(=O)O)c4c3CCC4)c2o1 [Compound 54, 3-{7-[(5-Chloro-2-ethyl-1-benzofuran-7-yl)methoxy]-2,3-dihydro-1H-inden-4-yl}propanoic acid] |  |  |  |  |
| 70 | CCc1cc2cc(OC(F)(F)F)cc(COc3ccc(CCC(=O)O)c(C)c3C)c2o1 [Compound 12, 3-(4-{[2-Ethyl-5-(trifluoromethoxy)-1-benzofuran-7-yl]methoxy}-2,3-dimethylphenyl)propanoic acid] |  |  |  |  |
| 69 | Cc1cc2cc(OC(F)(F)F)cc(COc3ccc(CCC(=O)O)c(C)c3C)c2o1 [Compound 36, 3-(2,3-Dimethyl-4-{[2-methyl-5-(trifluoromethoxy)-1-benzofuran-7-yl]methoxy}phenyl)propanoic acid] |  | −7 | −36 | −46 |

Source: patent US9562053B2, “Benzo-fused heterocyclic derivatives useful as agonists of GPR120” (Janssen Pharmaceutica NV, priority 2013, dated 2017)
